What was measured:
[1] = target: T1, KRAS G12C/SOS/c-Raf complex (Homo sapiens, UniProt P01116, G12C); assay: KRAS G12C/SOS/c-Raf complex formation inhibitory action (TR-FRET); assay type: biochemical; settings: one hour at room temperature, read-out: IC50 (KRAS G12C/SOS/c-Raf complex formation inhibition)
T1 construct: Biotinylated AviTag-KRAS G12C (amino acid region 1-185, GDP)
Method in brief: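 Biotin-AviTag KRAS G12C (1-185, GDP-bound) was mixed with compound (4,000 to 4 nM stock dilutions), SOS (564-1049), GST-c-Raf (51-131) and GTP in pH 7.4 HEPES/NaCl/MgCl2/Tween buffer for 1 h at room temperature. Complex formation was read by TR-FRET with Eu-streptavidin and ULight-anti-GST (ex 337 nm, em 620/665 nm).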

pERK in NCI-H1373 tumor = assay: Intratumoral pERK inhibitory action in NCI-H1373 tumor of nude mice (TR-FRET); assay type: in vivo, mouse; settings: Mus musculus, 6 h, tumor six hours after administration
Description: Evaluation of Intratumoral pERK Inhibitory Action
The phosphorylation amount of ERK in tumor sample after administration of test compound was examined by using pERK measurement kit (Advanced ERK phospho-T202/Y204 kit, Cisbio co., Ltd) through a TR-FRET method.
2.0 to 5.0×10^6 NCI-H1373 cells were prepared by using a solution in which an equivalent amount of Matrigel (Becton. Dickinson and Company) was added to PBS, were injected subcutaneously in a volume of 100 μL and planted to male nude mice of 4-5 weeks old (CAnN.Cg-Foxn 1 nu/CrlCrlj (nu/nu), Charles River Laboratories Japan, Inc.), and then the male nude mice were used for the test 15 to 26 days later. The test was conducted with three mice in a solvent group and three mice in a test compound administration group, and the test compounds were prepared by using a solvent such that the dosage thereof is as indicated in Table 4. The test compound was administered subcutaneously or orally. For subcutaneous administration, physiological saline supplemented with equimolar hydrochloric acid was used as a solvent. For oral administration, 6% 2-hydroxypropyl-β-cyclodextrin (Sigma-Aldrich Co. LLC) was used as a solvent. Six hours after the administration, a tumor was excised from a cervical dislocated mouse under isoflurane anesthesia, and a part thereof was put into a 2 mL Eppendorf tube and frozen using liquid nitrogen. The tumor sample was stored in a deep freezer at −80° C. until it was subjected to the pERK measurement test.
500 μL of lysis buffer 1 (Phospholysis buffer [Cisbio Co., Ltd], Complete EDTA free [Roche Diagnostics K.K.], Phosphatase inhibitor cocktail 2 [Sigma-Aldrich Co. LLC]) and one bead (5 mm YTZ ball [Nikkato Corp.]) was added to the tumor sample, and crushed (frequency 25/s for 3 minutes) by using Tissue Lyser II (QIAGEN GmbH). The whole amount was transferred to a new tube and centrifuged (20,400×g for 10 minutes, 4° C.) by using a micro amount high speed cooling centrifuge so as to obtain a tumor lysate which is a supernatant. Protein quantification of tumor lysate was performed by using a protein quantification kit (Pierce 660 nm Protein Assay Kit [Thermo Fisher Scientific Inc.]), and each sample was diluted by using lysis buffer 2 (Phosphorysis buffer [Cisbio Co., Ltd], Blocking Agent [attached to pERK measurement kit]) such that the amount thereof is to be a final concentration of 0.5 μg/μL.
Each of p-ERK1/2 Cryptate antibody and p-ERK1/2 d2 antibody (attached to pERK measurement kit) was diluted 20-fold with each detection buffer (attached to pERK measurement kit), and thereby a mixed solution of these two types of antibodies was prepared. A mixed solution of antibody was added to a 384 well plate at a volume of 4 μL/well. Further, tumor lysate diluted to 0.5 μg/μL was added at a volume of 16 μL/well. After standing at room temperature in a wet box for about 17 hours, the fluorescence intensity at 620 nm and 665 nm was measured under the condition of excitation wavelength of 337 nm by using EnVision 2103 Multilabel Reader (PerkinElmer Co., Ltd.).

NCI-H1373 cells = assay: Anchorage-independent cell proliferation inhibitory action, NCI-H1373 spheroid three-dimensional culture; assay type: cell-based, Human; settings: Homo sapiens, NCI-H1373, 144 h, NCI-H1373 spheroid, six days, CellTiter Glo; read-out: IC50 (anchorage-independent cell proliferation inhibition)
Method in brief: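 KRAS G12C NCI-H1373 cells were grown as spheroids in low-attachment U-bottom wells and treated the next day with compound, six points from 1,000 to 0.3 nM final. After six days at 37°C, viability was read by CellTiter-Glo luminescence. IC50 was fitted by Sigmoid-Emax regression, with DMSO set as 0% and cell-free medium as 100% inhibition.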

T1 sequence (P01116 1-185 isoform P01116-2 G12C, one chain of several): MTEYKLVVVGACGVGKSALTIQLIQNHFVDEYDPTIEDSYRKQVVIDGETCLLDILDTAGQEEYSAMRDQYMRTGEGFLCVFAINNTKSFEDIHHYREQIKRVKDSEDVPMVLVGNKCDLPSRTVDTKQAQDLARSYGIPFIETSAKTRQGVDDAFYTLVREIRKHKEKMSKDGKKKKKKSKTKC

IC50 [1] [nM] | IC50 (NCI-H1373 cells) [nM] | SMILES | inhibition at 3 mg/kg (pERK in NCI-H1373 tumor; NCI-H1373, sc, Subcutaneous administration, 3 mg/kg, read-out: pERK inhibition (%)) [%] | inhibition at 10 mg/kg (pERK in NCI-H1373 tumor; NCI-H1373, po, Oral administration, 10 mg/kg) [%]
31 | – | C=CC(=O)N1CC2(CCN(c3nc(OC4CCN(C)CC4)nc4c(OCC)c(-c5c(C)ccc6[nH]ncc56)c(C=C)cc34)CC2)C1 [Ex 5] | 72 | –
45 | 8.3 | C=CC(=O)N1CC2(CCN(c3nc(OC4CCN(CC(C)(C)O)CC4)nc4c(OCC(F)(F)F)c(-c5c(C)ccc6[nH]ncc56)c(C=C)cc34)CC2)C1 [Ex 31] | – | 51

Reference: US10774082B2, “Quinazoline compound” (Astellas Pharma Inc., priority 2017, dated 2020)
